One data set concerns the target T1, tScCBS (Saccharomyces cerevisiae, UniProt P32582).
T1 construct: 6xHis (C); made in house
T1 sequence (P32582 1-345): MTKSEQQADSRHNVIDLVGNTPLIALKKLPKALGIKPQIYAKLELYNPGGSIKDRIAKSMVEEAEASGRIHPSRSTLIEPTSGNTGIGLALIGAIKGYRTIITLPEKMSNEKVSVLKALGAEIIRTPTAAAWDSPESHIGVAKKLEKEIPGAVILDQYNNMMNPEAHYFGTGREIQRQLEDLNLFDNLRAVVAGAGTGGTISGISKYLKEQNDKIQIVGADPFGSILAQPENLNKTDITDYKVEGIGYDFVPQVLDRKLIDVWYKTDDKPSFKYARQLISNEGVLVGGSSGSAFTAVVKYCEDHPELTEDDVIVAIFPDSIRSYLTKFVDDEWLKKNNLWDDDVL
Kind of data set: UV-Vis absorption titration of tScCBS (dissociation constants). The class given is binding. The settings on record: tScCBS 1 mg/mL, pH 8.5; decrease in absorbance at 412 nm (AOAA), increase at 460 nm (Ser) or 440 nm (Cys); 3 min incubation; read-out: Dissociation constant Kd (UV-Vis absorption). On the procedure: CBS enzymes. Recombinant truncated Saccharomyces cerevisiae CBS lacking the C-terminal regulatory domain (residues 346–507) and carrying the C-terminal 6xHis tag (tScCBS) was prepared as described previously. Engineered recombinant Homo sapiens CBS lacking a loop protruding from the central β-strand of the CBS2 domain corresponding to the residues 516–525 (HsCBS; described in detail in [21]) was purchased from GenScript.
UV − Vis and fluorescence spectroscopy. Absorption spectra were collected on a Tecan Infinite M200 Pro spectrophotometer in a buffer containing 50 mM Tris–HCl pH 8.5, 20 mM NaCl and 0.5 mM tris(2-carboxyethyl)phosphine (TCEP). All the spectra were carried out with a protein concentration of 1 mg/mL with a 1 cm path-length quartz cuvette in a total volume of 150 µL. tScCBS was titrated directly in a cuvette by successive additions of different concentrations of AOAA, Ser and Cys, respectively, and spectra were recorded between 240 and 600 nm after an incubation time of 3 min at RT. Fluorescence emission spectra were collected under the same conditions upon PLP excitation at 410 nm. Blank spectra were subtracted from sample spectra.

Data set [1] concerns HEK293 cells. Kind of data set: Detection of H2S production in live cells (AzMC imaging). The class given is cell-based, human. Here is the method: Cell culture. The human embryonic kidney cell line HEK293 (ATCC CRL-1573) was cultured in Dulbecco’s Modified Eagle Medium (DMEM) containing 4.5 g/L glucose. The culture medium was supplemented with 10% (v/v) heat-inactivated fetal bovine serum, 2 mM Glutamax, non-essential amino acids, 100 U/ml penicillin and 100 μg/ml streptomycin. Cells were grown in a humidified incubator at 37 °C and 5% CO2 atmosphere. Cell viability and proliferation were assessed using MTT and BrdU assay, respectively, essentially as described previously. Detection of H2S production in live cells. Cells were seeded in black 96-well plates with optical bottom (15,000 cells/well). The following morning, the cells were treated with 150 µM AOAA, 1/3/10 mM Ser or their combination for 24 h. After that the culture medium was replaced with Hank’s Balanced Salt Solution (HBSS) buffer supplemented with 100 μM AzMC and further incubated for 1 h. Dye’s specific fluorescence was visualized using a Leica DFC360 FX microscope and images were captured with Leica Application Suite X software (Leica Biosystems, Germany). Images were analyzed with ImageJ software (version 1.8.0; NIH, Bethesda, MD, USA) and data were analyzed using GraphPad Prism 8 (GraphPad Software Inc.; San Diego, CA, USA).

Data set [2] relates to HEK293 cells. The data set is described as follows: Bioenergetic analysis (Seahorse XFe24 flux analyzer). It counts as cell-based, human. On the procedure:
Bioenergetic analysis. The Seahorse XFe24 flux analyzer (Agilent Technologies, Santa Clara, CA, USA) was used to estimate mitochondrial respiration of HEK293 cells. Cells were seeded in Seahorse XFe24 Cell Culture Microplates at density of 15,000 cells/well in a total volume of 200 µl, incubated for 2 h, followed by treatment for 24 h as described above for H2S live imaging. Next day, culture medium was replaced for Seahorse XF DMEM supplemented with 2 mM glutamine, 1 mM pyruvate and 10 mM glucose. The microplate was then incubated in a CO2-free incubator at 37°C for 1 h, to allow temperature and pH equilibration, as recommended by the manufacturer. The assay protocol included two measurements of basal values of oxygen consumption rate (OCR), followed by the injection of 1 µM oligomycin, used to evaluate ATP generation rate. Subsequently, the mitochondrial oxidative phosphorylation uncoupler FCCP (0.2 µM) was added to estimate maximal mitochondrial respiratory capacity. Lastly, 0.5 µM of rotenone and antimycin A (each) were injected to inhibit the electron flux through the complex I and III, respectively, aiming to detect the extra-mitochondrial OCR. Data were analyzed with Wave package (version 2.6; Agilent Technologies, Santa Clara, CA, USA) and GraphPad Prism 8 (GraphPad Software Inc.; San Diego, CA, USA).

In the next data set the test system is human skin fibroblasts. Details: method as in PMID 31481613. The note with it: cited from earlier work.
The next data set concerns colon cancer cells. Details: method as in PMID 23836652, PMID 27521834, PMID 27257787. The settings on record: transformed cells like colon cancer cells; cited from earlier work.
The test system of data set [3] is HEK293 cells. Kind of data set: Cell viability (MTT). It counts as cell-based, human. The note with it: Ser 0.15–10 mM. On the procedure:
Cell culture. The human embryonic kidney cell line HEK293 (ATCC CRL-1573) was cultured in Dulbecco’s Modified Eagle Medium (DMEM) containing 4.5 g/L glucose. The culture medium was supplemented with 10% (v/v) heat-inactivated fetal bovine serum, 2 mM Glutamax, non-essential amino acids, 100 U/ml penicillin and 100 μg/ml streptomycin. Cells were grown in a humidified incubator at 37 °C and 5% CO2 atmosphere. Cell viability and proliferation were assessed using MTT and BrdU assay, respectively, essentially as described previously.

Structures are written as SMILES. Several values for one entry are separate records, joined by “and”; a condition that tells them apart may be missing. Equal entries are not always repeated.

For `NOCC(=O)O` [AOAA, aminooxyacetic acid], on tScCBS, the Kd (in general, the constant that tells how readily two partners part at equilibrium) was roughly 6 µM. Moreover, in the data set with HEK293 cells [1] (HEK293, 150 µM AOAA, 24 h), the “H2S-producing activity, % of the controls” value is ~ 15%. The “Bioenergetics parameters (basal respiration, maximal respiration, ATP production)” value in the data set on HEK293 cells [2] (HEK293, 150 µM AOAA, 24 h) is “significant decrease”. Moreover, the “Concentration shutting down CBS-derived H2S biogenesis” value with human skin fibroblasts is 3 µM. Also, in the data set with colon cancer cells, the “Concentrations required to achieve similar level of inhibition of CBS-derived H2S biogenesis” value is 0.1 to 2 mM.
Regarding `N[C@@H](CO)C(=O)O` [Ser, serine], the Kd at tScCBS was ~58 µM and 58.6 µM. The “Reduction of cellular H2S productivity” value in the data set with HEK293 cells [1] (HEK293, 10 mM Ser in growth medium) is recorded as ~ 29%. The “Reduction of H2S production” value in the data set on HEK293 cells [1] (HEK293, Ser added to medium (1/3/10 mM, 24 h), concentration-dependent, 'up to') is on record as ~ 30%. In addition, the “Recovery of H2S-producing capacity, % of control WT activity” value with HEK293 cells [1] (HEK293 inhibited by 150 µM AOAA, with 1, 3 or 10 mM Ser) is on record as 82–89%. The Cell viability entry in the data set on HEK293 cells [3] was “did not affect”. Also, in the data set on HEK293 cells [2] (HEK293, 1, 3 and 10 mM Ser alone, 24 h), the “Impact on mitochondrial function” value is “did not have any significant impact”. Besides, the “Cellular bioenergetics compared to untreated controls” value in the data set on HEK293 cells [2] (HEK293 inhibited by 150 µM AOAA, supplemented with 1, 3 or 10 mM Ser) was “correction or normalization”.
